{
  "source": "patent US9242945B2",
  "about": "“Substituted 2-benzylidene-2H-benzo[b][1,4]thiazin-3(4H)-ones, derivatives thereof, and therapeutic uses thereof” (TEMPLE UNIVERSITY—OF THE COMMONWEALTH SYSTEM OF HIGHER …, priority 2011, dated 2016)",
  "key": {"[1]": {"tested_on": "PC3", "test": "Cancer cell cytotoxicity assay, PC3", "assay_type": "cell-based", "conditions": "Homo sapiens, PC-3; PC3, Prostate Cancer", "protocol": "(§1) The effect of the compounds of the invention on tumor cells was determined by the assay described by Latham et al., Oncogene 12:827-837 (1996). Tumor cells K562 (chronic myelogenous leukemia; leukemia cell line +ve for Bcr-Abl) or DU145 (prostate cancer) were plated in 12-well dishes at a cell density of 2.5×10^4 cells well. The plated cells were treated 24 hours later with a compound of the invention dissolved in DMSO at multiple concentrations ranging from 0.01 μM to 100 μM. The plates were examined 96 hours later under an inverted microscope, Olympus CK-2 using a 10× objective, and compound activity was noted by physical observation. When necessary, the total number of viable cells was determined by trypsinizing the wells and counting the number of viable cells, as determined by trypan blue exclusion, using a hemacytometer. Where “Lower” and “Upper” value are provided in Table 5, the IC50 was determined to be within that range. […]\n(§2) The cytotoxicity of Compound 42, (Z)-6-((2,6-dichlorobenzyl)sulfonyl)-2-(4-hydroxy-3-nitrobenzylidene)-2H-benzo[b][1,4]thiazin-3(4H)-one, was determined according the assay method of Example 7 on the prostate (androgen dependent or independent), breast and pancreatic cancer cell lines listed in Table 6A, below, and the additional cell lines listed in Table 6B, below. […]"}, "[2]": {"tested_on": "K562 (chronic myelogenous leukemia; leukemia cell line +ve for Bcr-Abl)", "test": "Cytotoxicity assay, K562 tumor cells", "assay_type": "cell-based", "conditions": "Homo sapiens", "protocol": "The effect of the compounds of the invention on tumor cells was determined by the assay described by Latham et al., Oncogene 12:827-837 (1996). Tumor cells K562 (chronic myelogenous leukemia; leukemia cell line +ve for Bcr-Abl) or DU145 (prostate cancer) were plated in 12-well dishes at a cell density of 2.5×10^4 cells well. The plated cells were treated 24 hours later with a compound of the invention dissolved in DMSO at multiple concentrations ranging from 0.01 μM to 100 μM. The plates were examined 96 hours later under an inverted microscope, Olympus CK-2 using a 10× objective, and compound activity was noted by physical observation. When necessary, the total number of viable cells was determined by trypsinizing the wells and counting the number of viable cells, as determined by trypan blue exclusion, using a hemacytometer. Where “Lower” and “Upper” value are provided in Table 5, the IC50 was determined to be within that range. When only a “Lower” value is provided and no “Upper” value is listed, the IC50 was that value, or less than or greater than that value, as set forth in the Table.\nThe cytotoxicity of Compound 42, (Z)-6-((2,6-dichlorobenzyl)sulfonyl)-2-(4-hydroxy-3-nitrobenzylidene)-2H-benzo[b][1,4]thiazin-3(4H)-one, was determined according the assay method of Example 7 on the prostate (androgen dependent or independent), breast and pancreatic cancer cell lines listed in Table 6A, below, and the additional cell lines listed in Table 6B, below. The human mesenchymal stem cell line HMSC.hTERT and normal human fibroblast cell line HFL was included in the test."}, "[3]": {"tested_on": "MDA.MB-468", "test": "Cancer cell cytotoxicity assay, MDA.MB-468", "assay_type": "cell-based", "conditions": "Homo sapiens; MDA.MB-468, Breast Cancer", "protocol": "as §1, §2"}, "[4]": {"tested_on": "MDA.MB-231", "test": "Cancer cell cytotoxicity assay, MDA.MB-231", "assay_type": "cell-based", "conditions": "Homo sapiens; MDA.MB-231, Breast Cancer", "protocol": "as §1, §2"}, "[5]": {"target": "T1, PIM1 (Homo sapiens, UniProt P11309)", "T1 construct": "PIM1 (human full length protein; Invitrogen PV3503); purchased Invitrogen PV3503", "T1 sequence (P11309 whole entry)": "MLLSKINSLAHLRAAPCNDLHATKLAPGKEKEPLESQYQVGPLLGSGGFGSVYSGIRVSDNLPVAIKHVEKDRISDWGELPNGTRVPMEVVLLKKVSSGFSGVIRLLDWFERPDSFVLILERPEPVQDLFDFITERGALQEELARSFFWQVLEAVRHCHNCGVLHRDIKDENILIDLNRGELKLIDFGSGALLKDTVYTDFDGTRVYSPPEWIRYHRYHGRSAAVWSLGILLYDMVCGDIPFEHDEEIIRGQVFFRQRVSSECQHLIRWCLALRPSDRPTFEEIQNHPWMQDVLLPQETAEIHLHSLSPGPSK", "test": "PIM1 inhibition (32P-ATP kinase assay)", "assay_type": "biochemical", "conditions": "K9 Peptide substrate, 20 μM cold ATP", "protocol": "The ability of Compound 42 to inhibit the activity of the kinase proto-ocogene pim-was determined as follows. Ten nanograms of PIM1 (human full length protein; Invitrogen PV3503) was diluted into kinase buffer (20 mM Tris pH 7.5, 10 mM MgCl2, 0.01% NP-40, 1 mM EGTA, 2 mM DTT) and incubated with varying concentrations of Compound 42 at room temperature for 30 minutes. The kinase reactions were initiated by the addition of 20 μM of PIM1 specific synthetic peptide substrate (K9 Peptide; p70S6 Kinase Substrate; AnaSpec, San Jose, Calif.), 20 μM cold ATP, and 20 μCi γ-^32P-ATP. The reactions were incubated at 30° C. for 20 minutes and terminated by the addition of 0.5M o-Phosphoric acid. 10 μl of the reaction mixture was spotted on a P-30 Filtermat (PerkinElmer) and developed using autoradiography or phosphorimaging."}},
  "data": [
    {"compound": "O=C1Nc2cc(S(=O)(=O)Cc3c(Cl)cccc3Cl)ccc2S/C1=C\\c1ccc(O)c([N+](=O)[O-])c1", "note": "[Compound 42, (Z)-6-((2,6-dichlorobenzyl)sulfonyl)-2-(4-hydroxy-3-nitrobenzylidene)-2H-benzo[b][1,4]thiazin-3(4H)-one]", "values": [
      {"measurement": "GI50", "setting": "[1]", "result": 0.16, "unit": "µM"},
      {"measurement": "IC50", "setting": "[2]; K562, 96 h treatment, lower limit of the IC50 range, or the IC50 itself (or its bound) where no Upper value is listed, read-out: K562 IC50 (μm) Lower (μm)", "result": 0.1, "unit": "µM"},
      {"measurement": "GI50", "setting": "[2]; K562, Chronic myelogenous leukemia", "result": 0.16, "unit": "µM"},
      {"measurement": "GI50", "setting": "[3]", "result": 0.2, "unit": "µM"},
      {"measurement": "GI50", "setting": "[4]", "result": 0.12, "unit": "µM"},
      {"measurement": "IC50", "setting": "[5]", "result": 0.226, "unit": "µM"}
    ]}
  ]
}
